The record followed here is patent EP3262036B1, “THERAPEUTIC PYRIDAZINE COMPOUNDS AND USES THEREOF” (priority 2015, dated 2016).

For the experiment, the target named is BRG1 (Homo sapiens, UniProt P51532). In words: biochemical. The format is binding. The following applies: BRG1 HTRF IC50 (µM). The text has this: IC50 measurements for inhibitors using BRG1 TR-FRET Binding Assay

What is called IC50 is the midpoint of a concentration-inhibition curve. The low end stands for inhibition by little substance, the high end for a need for much substance.

The structures appear in SMILES notation. Counter-ions that a name gives are not always drawn.

BRG1, sequence (P51532 1448-1575): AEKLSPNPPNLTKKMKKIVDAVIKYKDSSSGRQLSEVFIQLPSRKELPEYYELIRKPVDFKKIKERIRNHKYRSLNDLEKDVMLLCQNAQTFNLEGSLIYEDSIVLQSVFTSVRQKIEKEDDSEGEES

`Nc1nnc(-c2c(O)cccc2F)cc1-c1ccccc1` [Example 233, 2-(6-amino-5-phenylpyridazin-3-yl)-3-fluorophenol]: the IC50 turned out to be 0.435 µM.

`Nc1nnc(-c2ccccc2O)cc1N1CCC2(CC1)C(=O)Nc1ccccc12` [Example 78, 1'-(3-amino-6-(2-hydroxyphenyl)pyridazin-4-yl)spiro[indoline-3,4'-piperidin]-2-one] showed an IC50 of 0.0758 µM. This IC50 lies about 5.7-fold lower than the previous one.

With `Nc1nnc(-c2ccccc2O)cc1N1CCC2(CC1)CNC(=O)C2` [Example 29, 8-(3-amino-6-(2-hydroxyphenyl)pyridazin-4-yl)-2,8-diazaspiro[4.5]decan-3-one], the midpoint of inhibition, the IC50, lay at 0.0566 µM.

Turning to `CC1CN(c2cc(-c3ccccc3O)nnc2N)CCN1C(=O)C1CC1c1ccccc1` (stereo not drawn) [Example 124, (4-(3-amino-6-(2-hydroxyphenyl)pyridazin-4-yl)-2-methylpiperazin-1-yl)(2-phenylcyclopropyl)methanone], the IC50 stood at 0.0258 µM.

For the compound `CC1CN(c2cc(-c3ccccc3O)nnc2N)CCN1S(=O)(=O)c1ccccc1` (stereo not drawn) [Example 109, 2-(6-amino-5-(3-methyl-4-(phenylsulfonyl)piperazin-1-yl)pyridazin-3-yl)phenol], the IC50 amounted to 0.0176 µM.

As to `CC(C)(O)C(=O)N1C2CCC1CN(c1cc(-c3ccccc3O)nnc1N)C2` [Example 120, 1-(3-(3-amino-6-(2-hydroxyphenyl)pyridazin-4-yl)-3,8-diazabicyclo[3.2.1]octan-8-yl)-2-hydroxy-2-methylpropan-1-one], the midpoint of inhibition, the IC50, lay at 0.0444 µM.

Regarding `CC(C)[C@H](N)C(=O)N1CCN(c2cc(-c3ccccc3O)nnc2N)CC1C` (stereo partly drawn) [Example 140, (2S)-2-amino-1-(4-(3-amino-6-(2-hydroxyphenyl)pyridazin-4-yl)-2-methylpiperazin-1-yl)-3-methylbutan-1-one], it took 0.0475 µM to reach half-maximal inhibition (IC50).

For `Cc1ccc(S(=O)(=O)N2CC=C(c3cc(-c4ccccc4O)nnc3N)CC2)cc1` [Example 222, 2-(6-amino-5-(1-tosyl-1,2,3,6-tetrahydropyridin-4-yl)pyridazin-3-yl)phenol], the IC50 was determined as 0.0889 µM.

As for `CC(C)(O)C1CCN(c2cc(-c3ccccc3O)nnc2N)CC1` [Example 20, 2-(6-amino-5-(4-(2-hydroxypropan-2-yl)piperidin-1-yl)pyridazin-3-yl)phenol], half-maximal inhibition (IC50) was put at 0.0358 µM.

Take `CN1CCCC(Oc2cc(-c3ccccc3O)nnc2N)C1` (stereo not drawn) [Example 246, 2-(6-amino-5-((1-methylpiperidin-3-yl)oxy)pyridazin-3-yl)phenol]: half-maximal inhibition (IC50) was put at 0.26 µM.

`Nc1nnc(-c2ccccc2O)cc1OC1CCCN(Cc2ccccc2)C1` (stereo not drawn) [Example 181, 2-(6-amino-5-((1-benzylpiperidin-3-yl)oxy)pyridazin-3-yl)phenol] gave an IC50 of 0.0337 µM.

In the case of `CC(=O)N1[C@H](C)CN(c2cc(-c3ccccc3O)nnc2N)C[C@H]1C` [Example 128, 1-((2R,6R)-4-(3-amino-6-(2-hydroxyphenyl)pyridazin-4-yl)-2,6-dimethylpiperazin-1-yl)ethan-1-one], the IC50 is 0.505 µM.

In the case of `CC(C)(O)C(=O)N1CCC(c2cc(-c3ccccc3O)nnc2N)CC1` [Example 229, 1-(4-(3-amino-6-(2-hydroxyphenyl)pyridazin-4-yl)piperidin-1-yl)-2-hydroxy-2-methylpropan-1-one], the concentration for half-maximal inhibition (IC50) stood at 0.0437 µM. Against the preceding compound, the IC50 is about 12-fold lower.

`Nc1nnc(-c2ccccc2O)cc1N1CC2CC1CN2c1ccccn1` (stereo not drawn) [Example 41, 2-(6-amino-5-(5-(pyridin-2-yl)-2,5-diazabicyclo[2.2.1]heptan-2-yl)pyridazin-3-yl)phenol] displayed an IC50 of 0.0282 µM.

On to `CC(=O)N1CCC(c2cc(-c3ccccc3O)nnc2N)CC1` [Example 227, 1-(4-(3-amino-6-(2-hydroxyphenyl)pyridazin-4-yl)piperidin-1-yl)ethanone], for which the IC50 was 0.0848 µM.

`CC1(C)CN(c2cc(-c3ccccc3O)nnc2N)CCN1S(C)(=O)=O` [Example 112, 2-(6-amino-5-(3,3-dimethyl-4-(methylsulfonyl)piperazin-1-yl)pyridazin-3-yl)phenol]: the IC50 came out at 0.0307 µM.

Compound `Nc1nnc(-c2ccccc2O)cc1N1CCCC(O)(c2ccccc2)C1` (stereo not drawn) [Example 59, 1-(3-amino-6-(2-hydroxyphenyl)pyridazin-4-yl)-3-phenylpiperidin-3-ol] gave an IC50 of 0.0158 µM.

Take `CN(C)C(=O)N1C2CCC1CN(c1cc(-c3ccccc3O)nnc1N)C2` [Example 121, 3-(3-amino-6-(2-hydroxyphenyl)pyridazin-4-yl)-N,N-dimethyl-3,8-diazabicyclo[3.2.1]octane-8-carboxamide]: the midpoint of inhibition, the IC50, lay at 0.0225 µM. This IC50 and that of the compound before are within 1.5-fold of each other.

With `NC(=O)C1CCN(c2cc(-c3ccccc3O)nnc2N)CC1` [Example 73, 1-(3-amino-6-(2-hydroxyphenyl)pyridazin-4-yl)piperidine-4-carboxamide], the IC50 came out at 0.0824 µM.

`Nc1nnc(-c2ccccc2O)cc1N1CCC(c2ccccc2)C1` (stereo not drawn) [Example 55, 2-(6-amino-5-(3-phenylpyrrolidin-1-yl)pyridazin-3-yl)phenol] returned an IC50 of 0.123 µM.

`CC1CN(c2cc(-c3ccccc3O)nnc2N)CCC1(O)c1ccccc1` (stereo not drawn) [Example 44, 1-(3-amino-6-(2-hydroxyphenyl)pyridazin-4-yl)-3-methyl-4-phenylpiperidin-4-ol] came in with an IC50 of 0.0253 µM. Compared with the last compound, the IC50 is about 4.9-fold lower.

In the case of `C[C@H]1CN(c2cc(-c3ccccc3O)nnc2N)CCN1C(=O)[C@@H]1CCCO1` [Example 142, ((S)-4-(3-amino-6-(2-hydroxyphenyl)pyridazin-4-yl)-2-methylpiperazin-1-yl)((S)-tetrahydrofuran-2-yl)methanone], the IC50 is 0.0975 µM.

`Cn1cc(N2C3CCC2CN(c2cc(-c4ccccc4O)nnc2N)C3)cn1` [Example 48, 2-(6-amino-5-(8-(1-methyl-1H-pyrazol-4-yl)-3,8-diazabicyclo[3.2.1]octan-3-yl)pyridazin-3-yl)phenol] gave an IC50 of 0.0309 µM. This IC50 lies about 3.2-fold lower than the previous one.

`Nc1ccc(-c2ccccc2O)nn1` [Example 203, 2-(6-aminopyridazin-3-yl)phenol] registered an IC50 of 0.335 µM. This IC50 is about 11-fold higher than that of the compound before.

The compound `C[C@@H]1CN(c2cc(-c3ccccc3O)nnc2N)CCN1S(=O)(=O)c1nccn1C` [Example 118, (R)-2-(6-amino-5-(3-methyl-4-((1-methyl-1H-imidazol-2-yl)sulfonyl)piperazin-1-yl)pyridazin-3-yl)phenol] displayed a half-maximal inhibitory concentration (IC50) of 0.0281 µM. This IC50 is about 12-fold lower than that of the compound before.

In the case of `CN1CCCN(c2cc(-c3ccccc3O)nnc2N)CC1` [Example 2, 2-(6-amino-5-(4-methyl-1,4-diazepan-1-yl)pyridazin-3-yl)phenol], the IC50 is 0.296 µM.

For `C[C@@H](Oc1cc(-c2ccccc2O)nnc1N)c1cccnc1` [Example 166, (R)-2-(6-amino-5-(1-(pyridin-3-yl)ethoxy)pyridazin-3-yl)phenol], half-maximal inhibition (IC50) required 0.132 µM.

Turning to `Nc1nnc(-c2ccccc2O)cc1C1CCNC1` (stereo not drawn) [Example 215, 2-(6-amino-5-(pyrrolidin-3-yl)pyridazin-3-yl)phenol hydrochloride], the IC50 turned out to be 0.743 µM.

In the case of `CC(=O)N1[C@H](C)CN(c2cc(-c3ccccc3O)nnc2N)C[C@@H]1C` [Example 139, 1-((2S,6R)-4-(3-amino-6-(2-hydroxyphenyl)pyridazin-4-yl)-2,6-dimethylpiperazin-1-yl)ethan-1-one], half-maximal inhibition (IC50) was put at 0.106 µM. Compared with the last compound, the IC50 is about 7-fold lower.

`Cn1cc(N2CCN(c3cc(-c4ccccc4O)nnc3N)CC2)cn1` [Example 68, 2-(6-amino-5-(4-(1-methyl-1H-pyrazol-4-yl)piperazin-1-yl)pyridazin-3-yl)phenol]: the IC50 is 0.0367 µM.

Compound `Nc1nnc(-c2ccccc2O)cc1O[C@H]1CCCC[C@@H]1c1ccccc1` [Example 165, 2-(6-amino-5-(((1,2-trans)-2-phenylcyclohexyl)oxy)pyridazin-3-yl)phenol] yielded an IC50 of 0.977 µM.

In turn, `CN(C)CC1(O)CCN(c2cc(-c3ccccc3O)nnc2N)CC1` [Example 31, 1-(3-amino-6-(2-hydroxyphenyl)pyridazin-4-yl)-4-((dimethylamino)methyl) piperidin-4-ol] yielded an IC50 of 0.0208 µM.

`Cn1ccnc1CN1CCN(c2cc(-c3ccccc3O)nnc2N)CC1` [Example 99, 2-[6-amino-5-[4-[(1-methylimidazol-2-yl)methyl]piperazin-1-yl]pyridazin-3-yl]phenol] yielded an IC50 of 0.0324 µM.

On to `CN(CCc1ccccc1)c1cc(-c2ccccc2O)nnc1N` [Example 36, 2-(6-amino-5-(methyl(phenethyl)amino)pyridazin-3-yl)phenol], for which the IC50 came out at 0.0962 µM.

For `Nc1nnc(-c2ccccc2O)cc1OC1CCCN(C(=O)c2ccccc2)C1` (stereo not drawn) [Example 185, (3-((3-amino-6-(2-hydroxyphenyl)pyridazin-4-yl)oxy)piperidin-1-yl)(phenyl)methanone], half-maximal inhibition (IC50) was put at 0.641 µM.

As to `C[C@H]1CN(c2cc(-c3ccccc3O)nnc2N)CCN1C(=O)c1cccnc1` [Example 155], the IC50 is 0.166 µM.

Regarding `CC1CN(c2cc(-c3ccccc3O)nnc2N)CCN1S(=O)(=O)C1CC1` (stereo not drawn) [Example 111, 2-(6-amino-5-(4-(cyclopropylsulfonyl)-3-methylpiperazin-1-yl)pyridazin-3-yl)phenol], the IC50 came to 0.0197 µM.

Regarding `Nc1nnc(-c2ccccc2O)cc1N1CCNC(C(F)(F)F)C1` (stereo not drawn) [Example 23, 2-(6-amino-5-(3-(trifluoromethyl)piperazin-1-yl)pyridazin-3-yl)phenol], half-maximal inhibition (IC50) was put at 0.172 µM.

Take `Nc1nnc(-c2ccccc2O)cc1C1=CCN(Cc2ccccc2)CC1` [Example 223, 2-(6-amino-5-(1-benzyl-1,2,3,6-tetrahydropyridin-4-yl)pyridazin-3-yl)phenol]: half-maximal inhibition (IC50) was put at 0.0205 µM.

As to `Nc1nnc(-c2ccccc2O)cc1OC1CCCCC1` [Example 179, 2-(6-amino-5-(cyclohexyloxy)pyridazin-3-yl)phenol], the IC50 worked out at 0.0451 µM.

Turning to `CC1CN(c2cc(-c3ccccc3O)nnc2N)CCN1Cc1ccccc1` (stereo not drawn) [Example 22, 2-(6-amino-5-(4-benzyl-3-methylpiperazin-1-yl)pyridazin-3-yl)phenol], the IC50 amounted to 0.0421 µM.

As to `CC(C)[C@H](N)C(=O)N1CCN(c2cc(-c3ccccc3O)nnc2N)C[C@H]1C` [Example 157, 2-Amino-1-((R)-4-(3-amino-6-(2-hydroxyphenyl)pvridazin-4-yl)-2-methylpiperazin-1-yl)-3-methylbutan-1-one], half-maximal inhibition (IC50) required 0.0296 µM. This IC50 and that of the compound before are within 1.5-fold of each other.
